# Test results from patent US20230346670A1, “Prebiotic Oral Care Compositions and Methods” (Colgate-Palmolive Company, priority 2020, published 2023).
# Marks after values point to notes of the source that are not given here.
# How the values were obtained:
# Format in all cases: cell-based
# [1] = system: multi-species biofilm (beneficial/commensal species, periodontal pathogens, cariogenic pathogens); test: Multi-species biofilm composition, relative proportions and group changes
# Method: Biofilms are grown vertically on Calcium Deficient Hydroxyapatite (CAD-HA) disks (Hitemco Medical, Old Bethpage, USA) using the Amsterdam Active Adhesion model. […] After this 24 h, disks are rinsed 3 times a day for 3 minutes (RT, 250 rpm), for 3 consecutive days, by transferring the lid containing the disks to a new 24-well plate containing 2 mL/well of the appropriate substrate solution. As a negative control, PBS (pH 5.7) without substrate supplementation is used. N-acetyl-D-glucosamine (NADG), α-D-lactose, D-(+)-trehalose and D-(+)-raffinose are selected to determine their effects on multi-species biofilm composition. Repeated rinsing of the biofilms with the substrates at a concentration of 1 M results in a significant decrease in absolute numbers in at least four of the pathogenic bacterial species tested in the assay, in comparison to the control, the results of which are described in Table 1 below. Note, NADG decreased absolute numbers of S. sobrinus. Absolute abundances of bacterial species are shown as mean ± SD (n = 3) logarithmic values of the genome equivalents per millilitre (log(Geq/mL)).
# [2] = system: A. actinomycetemcomitans virulence genes; test: Virulence gene expression in multi-species biofilm (SYBR RT-qPCR)
# Method: (§1) Biofilms are grown vertically on Calcium Deficient Hydroxyapatite (CAD-HA) disks (Hitemco Medical, Old Bethpage, USA) using the Amsterdam Active Adhesion model. Biofilms are allowed to establish during 24 h (37° C., 170 rpm) under microaerophilic conditions (6% O2, 7% CO2, 7% H2, 80% N2). After this 24 h, disks are rinsed 3 times a day for 3 minutes (RT, 250 rpm), for 3 consecutive days, by transferring the lid containing the disks to a new 24-well plate containing 2 mL/well of the appropriate substrate solution. As a negative control, PBS (pH 5.7) without substrate supplementation is used.
# (§2) The virulence of the substrate-treated multi-species biofilms are evaluated by analyzing the relative expression of 33 genes that are recognized as being related to some form of virulence and from 4 periodontal pathogens.
# (§3) Expression of bacterial virulence genes is analyzed through SYBR RT-qPCR and normalized for bacterial housekeeping gene expression. […] These effects are illustrated in Tables 6a and 6b:
# (§4) Note, for Tables 6a and 6b, that fold changes in virulence gene expression are determined relative to the control condition through the 2^^-ΔΔCt method and are shown as the geometric mean (C.I.) (n = 3) of the 2^^-ΔΔ ^Ct values. All substrates are dissolved in PBS at a concentration of 1 M (upper part) or 1%(w/v) (lower part). Values between 0 and 1 represent relative downregulation, values >1 represent relative upregulation. […] NADG: N-acetyl-D-glucosamine; C.I.: 95% confidence interval.
# [3] = system: P. gingivalis virulence genes; test: as above; settings: relative to control, 2^-ΔΔCt, n = 3
# Method: as §1, §2, §3, §4
# [4] = system: F. nucleatum virulence genes; test: as above; settings: relative to control = 1, 2^-ΔΔCt, n = 3
# Method: as §1, §2, §3
# as §4, with “Table 6c,” for “Tables 6a and 6b, that”, “2^^-ΔΔCt” for “2^^-ΔΔ ^Ct”
# [5] = system: human oral keratinocytes (HOK-18A); test: Inflammatory mediator gene expression in keratinocytes exposed to substrate-treated biofilms (SYBR RT-qPCR); settings: relative to control, n = 3
# Method: Cultures of immortalized human oral keratinocytes (HOK-18A) are grown. […] The IL-8 levels in the cellular supernatant are determined as well. RNA is converted to cDNA and relative expression of inflammatory mediator genes is determined as described above with respect to the cellular housekeeping gene β-actin.
# In HOKs exposed to substrate-treated (substrate concentrations of […]) multi-species biofilms, there are mostly decreases in inflammatory mediator gene expression as measured via SYBR RT-qPCR, the results of which are detailed in Table 7:
# Fold changes in inflammatory mediator gene expression from human oral keratinocytes (HOK-18A) exposed to substrate-treated multi-species biofilms are determined relatively to the control through the 2^^-ΔΔCt method and are shown as the geometric mean (C.I.) (n = 3) of the 2^^-ΔΔCt values. All substrates are dissolved in PBS at a concentration of 1 M (upper part) or 1%(w/v) (lower part). Values between 0 and 1 represent relative downregulation, values >1 represent relative upregulation.
# [6] = Table 1a, substrate 1 M, listed as D-(+)-trehalose
# [7] = Table 3, separate experiments, concentration not given
# [8] = lower part of Table 6a, substrate 1%(w/v), relative to control = 1
# [9] = substrate 1 M, relative to control = 1, 2^-ΔΔCt, n = 3
# [10] = HOK-18A exposed to biofilms treated with substrate 1% (w/v)
# [11] = HOK-18A exposed to biofilms treated with substrate 1 M
structure (smiles),measurement,setting,value
"OC[C@H]1O[C@H](O[C@H]2O[C@H](CO)[C@@H](O)[C@H](O)[C@H]2O)[C@H](O)[C@@H](O)[C@@H]1O [D-trehalose, D-(+)-trehalose]",relative proportion of beneficial or commensal species in biofilm,"[1]; Table 1a, substrate 1 M",88.98 (+/- 9.12)^∗ % (Geq/mL)
same,relative proportion of cariogenic pathogens in biofilm,"[1]; Table 1a, substrate 1 M",9.22 (+/- 8.55) % (Geq/mL)
same,relative proportion of periodontal pathogens in biofilm,"[1]; Table 1a, substrate 1 M",1.80 (+/- 1.04)^∗ % (Geq/mL)
same,relative proportion of beneficial or commensal species in biofilm,[1]; [6],88.98±9.12 % (Geq/mL)
same,relative proportion of cariogenic pathogens in biofilm,[1]; [6],9.22±8.55 % (Geq/mL)
same,relative proportion of periodontal pathogens in biofilm,[1]; [6],1.80±1.04 % (Geq/mL)
same,relative proportion of beneficials/commensals in biofilm,[1]; [7],73.55 (+/- 2.84) % (Geq/mL)
same,relative proportion of cariogenic pathogens in biofilm,[1]; [7],0.21 (+/- 0.05) % (Geq/mL)
same,relative proportion of periodontal pathogens in biofilm,[1]; [7],26.23 (+/- 2.88) % (Geq/mL)
same,"fold change in aae expression, geometric mean (95% C.I.)",[2]; [8],0.95 (0.33-2.78) fold
same,"fold change in apaH expression, geometric mean (95% C.I.)",[2]; [8],0.64 (0.37-1.10) fold
same,"fold change in cdtB expression, geometric mean (95% C.I.)",[2]; [8],0.67 (0.51-0.89) fold
same,"fold change in emaA expression, geometric mean (95% C.I.)",[2]; [8],0.67 (0.49-0.90) fold
same,"fold change in flp expression, geometric mean (95% C.I.)",[2]; [8],0.48 (0.07-3.50) fold
same,"fold change in ltxA expression, geometric mean (95% C.I.)",[2]; [8],0.08 (0.01-0.73)^∗ fold
same,"fold change in omp29 expression, geometric mean (95% C.I.)",[2]; [8],0.51 (0.19-1.34)^∗ fold
same,"fold change in omp100 expression, geometric mean (95% C.I.)",[2]; [8],0.43 (0.26-0.72)^∗ fold
same,"fold change in orf859 expression, geometric mean (95% C.I.)",[2]; [8],1.04 (0.53-2.03) fold
same,"fold change in pgA expression, geometric mean (95% C.I.)",[2]; [8],0.91 (0.81-1.03) fold
same,"fold change in vapA expression, geometric mean (95% C.I.)",[2]; [8],1.02 (0.87-1.21) fold
same,"fold change in vppA expression, geometric mean (95% C.I.)",[2]; [8],0.48 (0.42-0.55)^∗ fold
same,"fold change in aae expression, geometric mean (95% C.I.)",[2]; [9],0.03 (0.01-0.15)^∗ fold
same,"fold change in apaH expression, geometric mean (95% C.I.)",[2]; [9],0.16 (0.04-0.56)^∗ fold
same,"fold change in cdtB expression, geometric mean (95% C.I.)",[2]; [9],0.08 (0.03-0.21)^∗ fold
same,"fold change in emaA expression, geometric mean (95% C.I.)",[2]; [9],0.11 (0.04-0.32)^∗ fold
same,"fold change in flp expression, geometric mean (95% C.I.)",[2]; [9],0.71 (0.30-1.67) fold
same,"fold change in ltxA expression, geometric mean (95% C.I.)",[2]; [9],0.01 (0.00-0.01)^∗ fold
same,"fold change in omp29 expression, geometric mean (95% C.I.)",[2]; [9],0.74 (0.18-3.00) fold
same,"fold change in omp100 expression, geometric mean (95% C.I.)",[2]; [9],0.09 (0.01-1.11)^∗ fold
same,"fold change in orf859 expression, geometric mean (95% C.I.)",[2]; [9],0.14 (0.02-0.87)^∗ fold
same,"fold change in pgA expression, geometric mean (95% C.I.)",[2]; [9],18.24 (5.89-56.51)^∗ fold
same,"fold change in vapA expression, geometric mean (95% C.I.)",[2]; [9],0.32 (0.08-1.26)^∗ fold
same,"fold change in vppA expression, geometric mean (95% C.I.)",[2]; [9],0.32 (0.01-4.50)^∗ fold
same,"fold change in pgA expression, geometric mean (95% C.I.)","[2]; substrate 1 M, relative to control = 1, 2^-ΔΔCt, n = 3, listed as D-(+)-trehalose",18.2 fold
same,"fold change in fimA expression, geometric mean (95% C.I.)",[3]; substrate 1 % (w/v),1.58 (0.86-2.90) fold
same,"fold change in kgp expression, geometric mean (95% C.I.)",[3]; substrate 1 % (w/v),3.24 (1.63-6.44)^∗ fold
same,"fold change in partC expression, geometric mean (95% C.I.)",[3]; substrate 1 % (w/v),0.71 (0.37-1.35) fold
same,"fold change in rgpA expression, geometric mean (95% C.I.)",[3]; substrate 1 % (w/v),1.49 (0.69-3.22) fold
same,"fold change in kgp expression, geometric mean (95% C.I.)","[3]; substrate 1 % (w/v), listed as D-(+)-trehalose",approximately 3.2 fold
same,"fold change in fimA expression, geometric mean (95% C.I.)",[3]; substrate 1 M,0.13 (0.02-0.96)^∗ fold
same,"fold change in kgp expression, geometric mean (95% C.I.)",[3]; substrate 1 M,<LOD
same,"fold change in partC expression, geometric mean (95% C.I.)",[3]; substrate 1 M,0.03 (0.00-0.49)^∗ fold
same,"fold change in rgpA expression, geometric mean (95% C.I.)",[3]; substrate 1 M,0.00 (0.00-0.02)^∗ fold
same,"fold change in ABC transp. perm. (ABC transporter permease) expression, geometric mean (95% C.I.)",[4]; substrate 1% (w/v),0.40 (0.15-1.03)^∗ fold
same,"fold change in EF-G expression, geometric mean (95% C.I.)",[4]; substrate 1% (w/v),0.12 (0.03-0.55)^∗ fold
same,"fold change in but. -coA transf. (butyrate-acetoacetate CoA-transferase) expression, geometric mean (95% C.I.)",[4]; substrate 1% (w/v),0.40 (0.05-3.27) fold
same,"fold change in hemin receptor expression, geometric mean (95% C.I.)",[4]; substrate 1% (w/v),0.16 (0.05-0.50)^∗ fold
same,"fold change in hemolysin expression, geometric mean (95% C.I.)",[4]; substrate 1% (w/v),0.65 (0.15-2.70) fold
same,"fold change in ompA expression, geometric mean (95% C.I.)",[4]; substrate 1% (w/v),0.84 (0.21-3.35) fold
same,"fold change in transposase expression, geometric mean (95% C.I.)",[4]; substrate 1% (w/v),1.02 (0.33-3.12) fold
same,"fold change in ABC transp. perm. (ABC transporter permease) expression, geometric mean (95% C.I.)",[4]; substrate 1 M,32.18 (21.08-49.14)^∗ fold
same,"fold change in EF-G expression, geometric mean (95% C.I.)",[4]; substrate 1 M,1.18 (0.46-3.02) fold
same,"fold change in but. -coA transf. (butyrate-acetoacetate CoA-transferase) expression, geometric mean (95% C.I.)",[4]; substrate 1 M,4.28 (1.32-13.86)* fold
same,"fold change in hemin receptor expression, geometric mean (95% C.I.)",[4]; substrate 1 M,41.19 (20.31-83.52)^∗ fold
same,"fold change in hemolysin expression, geometric mean (95% C.I.)",[4]; substrate 1 M,12.15 (7.73-19.10)^∗ fold
same,"fold change in ompA expression, geometric mean (95% C.I.)",[4]; substrate 1 M,1.23 (0.98-1.53) fold
same,"fold change in transposase expression, geometric mean (95% C.I.)",[4]; substrate 1 M,106.44 (42.35-267.50)^∗ fold
same,"fold change in IL-1β gene expression, geometric mean (C.I.)",[5]; [10],1.06 (0.55-2.06) fold
same,"fold change in IL-6 gene expression, geometric mean (C.I.)",[5]; [10],1.00 (0.46-2.17) fold
same,"fold change in IL-8 gene expression, geometric mean (C.I.)",[5]; [10],1.32 (0.89-1.94)^∗ fold
same,"fold change in MMP-8 gene expression, geometric mean (C.I.)",[5]; [10],0.66 (0.46-0.93) fold
same,"fold change in TNF-α gene expression, geometric mean (C.I.)",[5]; [10],0.94 (0.54-1.64) fold
same,"fold change in IL-1β gene expression, geometric mean (C.I.)",[5]; [11],0.79 (0.45-1.38) fold
same,"fold change in IL-6 gene expression, geometric mean (C.I.)",[5]; [11],1.27 (0.11-14.86) fold
same,"fold change in IL-8 gene expression, geometric mean (C.I.)",[5]; [11],0.22 (0.15-0.34)^∗ fold
same,"fold change in MMP-8 gene expression, geometric mean (C.I.)",[5]; [11],0.81 (0.68-0.95) fold
same,"fold change in TNF-α gene expression, geometric mean (C.I.)",[5]; [11],0.66 (0.41-1.06)^∗ fold
